Results from patent publication US20230218581A1, “COMPOSITIONS AND METHODS COMPRISING DENDRIMERS AND THERAPEUTIC AGENTS” (The Johns Hopkins University, priority 2020, published 2023).

What was measured:
[1] = test system: human immunodeficiency virus (HIV); conditions: cited from earlier work
mouse primary glia = assay: exosome release from glial cells, nanoparticle tracking analysis; type: cell-based; conditions: glia activated by FBS, 0.03-100 μM, two hours after treatment
P38g = molecular target: T1, P38g (Homo sapiens, UniProt P53778); assay: p38 MAP kinase profiling, P38g; conditions: DPTIP tested at 0.001-100 μM
T1 sequence (P53778 1-367): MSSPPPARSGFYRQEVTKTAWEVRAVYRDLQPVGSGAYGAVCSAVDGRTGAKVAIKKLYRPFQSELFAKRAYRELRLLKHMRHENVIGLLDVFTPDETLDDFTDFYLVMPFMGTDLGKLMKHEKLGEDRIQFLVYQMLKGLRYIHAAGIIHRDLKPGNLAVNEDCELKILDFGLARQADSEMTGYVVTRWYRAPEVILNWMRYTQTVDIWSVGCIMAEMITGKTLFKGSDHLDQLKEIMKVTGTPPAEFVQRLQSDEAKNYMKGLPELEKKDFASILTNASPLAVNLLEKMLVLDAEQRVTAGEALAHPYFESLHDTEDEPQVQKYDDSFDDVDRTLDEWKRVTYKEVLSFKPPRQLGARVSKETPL

P38a/MAPK14 = P38a/MAPK14 (Homo sapiens, UniProt Q16539); assay: p38 MAP kinase profiling, P38a; conditions: DPTIP tested at 0.001-100 μM
horizontal brain slices = assay: voltage traces from brain slices on multielectrode array; conditions: pre and post 10 μM treatment
P38d/MAPK13 = molecular target: T2, P38d/MAPK13 (Homo sapiens, UniProt O15264); assay: p38 MAP kinase profiling, P38d; type: biochemical; conditions: DPTIP tested at 0.001-100 μM
T2 sequence (O15264 1-365): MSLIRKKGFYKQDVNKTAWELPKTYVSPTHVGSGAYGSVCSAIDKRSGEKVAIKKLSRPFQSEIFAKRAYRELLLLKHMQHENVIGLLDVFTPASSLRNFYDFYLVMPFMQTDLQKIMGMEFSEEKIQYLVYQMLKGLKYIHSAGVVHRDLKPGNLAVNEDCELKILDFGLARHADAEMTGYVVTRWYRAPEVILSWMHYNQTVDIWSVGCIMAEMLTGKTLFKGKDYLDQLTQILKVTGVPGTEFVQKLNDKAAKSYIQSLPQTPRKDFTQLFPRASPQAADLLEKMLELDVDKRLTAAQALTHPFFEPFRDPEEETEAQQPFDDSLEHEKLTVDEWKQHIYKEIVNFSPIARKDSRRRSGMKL

P38b/MAPK11 = P38b/MAPK11 (Homo sapiens, UniProt Q15759); assay: p38 MAP kinase profiling, P38b; conditions: DPTIP tested at 0.001-100 μM
[2] = DPTIP brain penetration in AD mice (3xTg); type: in vivo; conditions: mouse, brain/plasma, ip; AD mice (3×Tg), 10 mg/kg i.p.
Text: (§1) ; FIG. 6C) administration in mice were not optimal (F<5%, AUCbrain/plasma ratio <0.2).

[3] = test system: synaptic proteins (PSD-95, NR2A, GluR1); assay: synaptic protein levels after nSMase2 inhibitor treatment; type: in vivo; conditions: 10 mg/kg daily; intraperitoneal
[4] = Phase I metabolic stability, mouse liver microsomes; type: in vitro ADME; conditions: at 1 hr
Method: (§2) The in vitro and in vivo pharmacokinetic properties of DPTIP were evaluated.
as §1

[5] = DPTIP pharmacokinetics in mice; type: in vivo
Method: as §2, §1

[6] = 759 bioassays; cited from earlier work
[7] = phase II glucuronidation stability; type: in vitro ADME; conditions: at 1 hr
Text: as §1

[8] = Phase I metabolic stability, human liver microsomes; type: in vitro ADME; conditions: at 1 hr
Method: as §2, §1

alkaline phosphatase = assay: selectivity: alkaline phosphatase inhibition; type: biochemical
acid sphingomyelinase = molecular target: T3, acid sphingomyelinase (Homo sapiens, UniProt P17405); assay: selectivity: acid sphingomyelinase inhibition
T3 sequence (P17405 47-631): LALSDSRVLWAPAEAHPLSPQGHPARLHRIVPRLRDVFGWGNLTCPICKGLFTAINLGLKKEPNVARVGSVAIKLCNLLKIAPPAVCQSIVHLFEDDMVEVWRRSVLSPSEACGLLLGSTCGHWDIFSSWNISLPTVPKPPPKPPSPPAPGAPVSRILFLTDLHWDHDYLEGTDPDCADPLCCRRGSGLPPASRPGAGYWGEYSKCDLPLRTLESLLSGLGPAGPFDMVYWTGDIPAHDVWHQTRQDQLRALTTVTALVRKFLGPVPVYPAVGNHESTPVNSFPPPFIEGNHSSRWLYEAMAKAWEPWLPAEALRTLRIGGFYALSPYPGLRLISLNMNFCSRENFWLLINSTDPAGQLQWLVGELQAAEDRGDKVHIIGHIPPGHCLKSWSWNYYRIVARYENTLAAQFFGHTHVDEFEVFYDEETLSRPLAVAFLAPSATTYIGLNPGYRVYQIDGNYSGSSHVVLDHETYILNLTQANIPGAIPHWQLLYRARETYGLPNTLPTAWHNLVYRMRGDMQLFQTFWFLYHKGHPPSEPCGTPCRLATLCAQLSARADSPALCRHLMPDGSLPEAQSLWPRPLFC

Sequence of P38b/MAPK11 (Q15759 whole entry): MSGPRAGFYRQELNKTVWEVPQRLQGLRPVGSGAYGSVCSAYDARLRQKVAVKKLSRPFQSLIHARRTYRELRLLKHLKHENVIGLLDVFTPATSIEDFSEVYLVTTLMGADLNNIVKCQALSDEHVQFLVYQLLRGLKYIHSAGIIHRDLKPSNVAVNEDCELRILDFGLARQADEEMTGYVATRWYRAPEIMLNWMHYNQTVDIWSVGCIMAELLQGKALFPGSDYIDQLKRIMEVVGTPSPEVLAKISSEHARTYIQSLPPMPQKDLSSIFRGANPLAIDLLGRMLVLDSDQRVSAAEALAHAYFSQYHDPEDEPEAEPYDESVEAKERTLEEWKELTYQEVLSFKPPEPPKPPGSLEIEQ
Sequence of P38a/MAPK14 (Q16539 whole entry): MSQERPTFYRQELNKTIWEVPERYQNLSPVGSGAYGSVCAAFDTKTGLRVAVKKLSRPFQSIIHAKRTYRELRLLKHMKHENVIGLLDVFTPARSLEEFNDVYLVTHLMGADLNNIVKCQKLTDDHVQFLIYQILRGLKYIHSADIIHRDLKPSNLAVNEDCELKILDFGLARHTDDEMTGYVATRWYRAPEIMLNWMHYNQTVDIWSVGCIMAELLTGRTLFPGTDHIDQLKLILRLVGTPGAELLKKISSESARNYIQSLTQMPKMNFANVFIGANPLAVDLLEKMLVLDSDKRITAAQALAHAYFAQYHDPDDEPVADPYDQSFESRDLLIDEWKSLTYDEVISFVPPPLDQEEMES

SMILES: CCCCCCCCCC(=O)N[C@H](CO)C(=O)NC1=CC2(CO2)C(=O)C=C1 (stereo partly drawn) [spiroepoxide]
- dendritic cell-mediated infection of healthy CD4+ T lymphocytes [1]: reduced

SMILES: COc1cc(OC)cc(-c2nc(-c3cccs3)c(-c3ccccc3)[nH]2)c1 [des-hydroxyl analog, reference compound]
- exosome release (mouse primary glia): no effect

SMILES: COc1cc(-c2nc(-c3cccs3)c(-c3ccccc3)[nH]2)cc(OC)c1O [DPTIP, 2,6-dimethoxy-4-(5-phenyl-4-(thiophen-2-yl)-1H-imidazol-2-yl) phenol]
- IC50 (M) (P38g): not quantifiable
- IC50 (M) (P38a/MAPK14): not quantifiable
- differences in voltage traces (neuronal function) (horizontal brain slices): No significant differences
- IC50 (M) (P38d/MAPK13): not quantifiable
- IC50 (M) (P38b/MAPK11): not quantifiable
- Kp [2]: < 0.2
- exosome release (mouse primary glia): inhibited exosome release in a dose-dependent manner
- effect on PSD95 or NR2A [3]: no significant effect
- % remaining (CYP-dependent oxidation) [4]: 100%
- levels of DPTIP post-administration ([5]; 2-he post-administration): undetectable
- Kp ([5]; mouse, brain/plasma, 10 mg/kg PO, read-out: AUCbrain/plasma ratio): < 0.2
- clearance ([5]; mouse, plasma, oral, 10 mg/kg, read-out: clearance Clapp): 92 mL/min/kg
- half-life ([5]; mouse, plasma, oral, 10 mg/kg, read-out: plasma half-life t½ (converted)): ~30 min
- bioavailability ([5]; mouse, plasma, 10 mg/kg PO, read-out: oral bioavailability F): < 5%
- share of assays with weak activity (μM) [6]: < 2.5%
- % remaining (phase II glucuronidation) [7]: > 50%
- % remaining (CYP-dependent oxidation) [8]: 100%
- IC50 (alkaline phosphatase): > 100 µM
- IC50 (acid sphingomyelinase): > 100 µM
